Data set [1] concerns the target T1, hERG (Kv11.1, KCNH2) (Homo sapiens, UniProt Q12809). In words: in vitro.
Description: MMV: Malaria Box compounds were tested for inhibition of the human ether a go-go related gene (hERG), Kv11.1 channel, using IonWorks 384-well patch clamp electrophysiology at 1.1uM (3 independent assay plates up to 12 cells per concentration).
Data set [2] addresses T1, hERG (Kv11.1, KCNH2). Description: in vitro. This is another data set of the same source.
Description: MMV: Malaria Box compounds were tested for inhibition of the human ether a go-go related gene (hERG), Kv11.1 channel, using IonWorks 384-well patch clamp electrophysiology at 11.1uM (3 independent assay plates up to 12 cells per concentration).

The text below walks through data of ChEMBL document CHEMBL3301458, “MMV Malaria Box hERG screening”.

A word on the inhibition: it is the change of the read-out against control, counted positive when it falls.

Molecules are shown by their SMILES. The source made the active and inactive calls. How the calls were made is not given here.

T1 sequence (Q12809 whole entry): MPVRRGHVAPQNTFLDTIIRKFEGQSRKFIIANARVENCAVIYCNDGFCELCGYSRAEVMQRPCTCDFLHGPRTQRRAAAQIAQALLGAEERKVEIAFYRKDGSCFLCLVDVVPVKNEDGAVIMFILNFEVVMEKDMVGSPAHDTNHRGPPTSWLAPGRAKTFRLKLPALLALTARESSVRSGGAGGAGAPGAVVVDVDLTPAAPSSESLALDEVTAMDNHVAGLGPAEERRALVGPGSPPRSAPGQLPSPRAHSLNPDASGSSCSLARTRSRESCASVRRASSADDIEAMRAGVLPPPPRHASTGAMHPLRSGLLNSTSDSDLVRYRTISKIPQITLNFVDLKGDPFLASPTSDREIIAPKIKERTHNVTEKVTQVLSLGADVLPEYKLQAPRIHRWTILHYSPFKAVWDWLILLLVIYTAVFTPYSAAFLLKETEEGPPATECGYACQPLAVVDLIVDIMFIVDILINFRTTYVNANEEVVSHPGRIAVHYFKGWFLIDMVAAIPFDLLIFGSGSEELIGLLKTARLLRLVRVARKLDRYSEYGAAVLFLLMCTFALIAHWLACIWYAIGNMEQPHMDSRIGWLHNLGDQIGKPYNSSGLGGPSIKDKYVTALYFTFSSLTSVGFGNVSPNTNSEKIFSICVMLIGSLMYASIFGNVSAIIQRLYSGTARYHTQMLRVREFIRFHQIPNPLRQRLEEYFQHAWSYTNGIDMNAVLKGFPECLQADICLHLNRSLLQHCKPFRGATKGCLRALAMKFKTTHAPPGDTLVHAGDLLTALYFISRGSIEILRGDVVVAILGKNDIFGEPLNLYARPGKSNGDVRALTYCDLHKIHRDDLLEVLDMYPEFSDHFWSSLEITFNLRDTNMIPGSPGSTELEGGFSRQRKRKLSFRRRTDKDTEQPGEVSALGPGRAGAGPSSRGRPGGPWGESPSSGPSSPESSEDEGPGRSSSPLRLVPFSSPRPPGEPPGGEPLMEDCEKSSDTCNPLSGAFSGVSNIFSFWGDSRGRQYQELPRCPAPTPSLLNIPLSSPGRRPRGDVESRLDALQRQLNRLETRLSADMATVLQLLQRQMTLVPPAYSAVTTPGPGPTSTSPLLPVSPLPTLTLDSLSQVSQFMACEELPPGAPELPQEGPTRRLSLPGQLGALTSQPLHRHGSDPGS

For the compound `Cc1cc(C)cc(Nc2cc(C)nc3nc(C(F)(F)F)nn23)c1`, at hERG (Kv11.1, KCNH2) [1], the inhibition at 1.1 µM turned out to be 20%. In addition, the inhibition at 11.1 µM against hERG (Kv11.1, KCNH2) [2] came to 40%.
`CCOC(=O)c1cnc2ccc(CC)cc2c1O`: at hERG (Kv11.1, KCNH2) [1], the inhibition at 1.1 µM was found to be 1%. In addition, the inhibition at 11.1 µM on hERG (Kv11.1, KCNH2) [2] was 12% (inactive).
For `O=C(CCc1ccccc1)c1ccccc1OCC(O)CN1CCCCC1` (configuration not stated) the same measures were 1% and 17% (inactive).
Take `Cc1cc(Nc2ccc3ccccc3c2)n2ncnc2n1`: the inhibition at 1.1 µM on hERG (Kv11.1, KCNH2) [1] amounted to 9%. At hERG (Kv11.1, KCNH2) [2], the inhibition at 11.1 µM was 25% (inactive).
In the case of `O=C(O)C1Cc2c([nH]c3ccccc23)C(c2ccc(Cl)cc2Cl)N1` (configuration not stated), the inhibition at 1.1 µM on hERG (Kv11.1, KCNH2) [1] was -5%. For the same compound, the inhibition at 11.1 µM on hERG (Kv11.1, KCNH2) [2] stood at 34%.
In the case of `COc1ccc2nc(C)cc(Nc3ccc(Cl)cc3)c2c1`, the inhibition at 1.1 µM against hERG (Kv11.1, KCNH2) [1] was determined as 67%. The inhibition at 11.1 µM against hERG (Kv11.1, KCNH2) [2] was found to be 111%.
For `COc1ccc2nc(C)cc(Nc3cccc(O)c3)c2c1` the same measures were 32% and 83% (active).
For `COC(=O)c1ccc(C2C3=C(O)CC(c4ccc(F)cc4)CC3=Nc3ccccc3N2C(=O)c2ccccc2)cc1` (configuration not stated) the same measures were 98% and 105%.
With `CCOc1cc2c(cc1OCC)C(c1cc(OC)c(O)cc1Cl)NCC2` (configuration not stated), on hERG (Kv11.1, KCNH2) [1], the inhibition at 1.1 µM came out at 10%. Also, at hERG (Kv11.1, KCNH2) [2], the inhibition at 11.1 µM turned out to be 30%.
On to `Brc1ccc(Nc2nc3ccccc3nc2Nc2ccc(Br)cc2)cc1`, for which the inhibition at 1.1 µM on hERG (Kv11.1, KCNH2) [1] is 2%. For the same compound, the inhibition at 11.1 µM at hERG (Kv11.1, KCNH2) [2] is 2% (inactive).
As for `OC(CNC1CCCCC1)Cn1c2ccccc2c2ccccc21` (configuration not stated), the inhibition at 1.1 µM against hERG (Kv11.1, KCNH2) [1] was found to be 14%. Moreover, the inhibition at 11.1 µM on hERG (Kv11.1, KCNH2) [2] is 23% (inactive).
For `Cc1ccc(CSCc2ccc(C(=O)NC3CC3)o2)cc1`, in that order: 2% and 26%.
For `Cc1cc(Nc2ccc(OCc3ccccc3)cc2)nc2cc(O)ccc12` the same measures were -2% and 108% (active).
Consider `CN1CCN(c2c3c(c(C#N)c4nc5ccccc5n24)CCC3)CC1`, for which the inhibition at 1.1 µM against hERG (Kv11.1, KCNH2) [1] stood at 7%. Besides, at hERG (Kv11.1, KCNH2) [2], the inhibition at 11.1 µM is 45%.
Regarding `COc1cc(-c2nc(-c3ccc(Sc4ccccc4)cc3)c(-c3ccccc3)[nH]2)cc(OC)c1O`, the inhibition at 1.1 µM at hERG (Kv11.1, KCNH2) [1] worked out at 15%. Moreover, the inhibition at 11.1 µM at hERG (Kv11.1, KCNH2) [2] is 13% (inactive).
For `COc1ccc2c(c1)OC(O)(C(F)(F)C(F)(F)F)CC2=O` (configuration not stated), in that order: 4% and 25%.
For `O=C1c2ccc3c4c(ccc(c24)C(=O)N1CCCCO)C(=O)N(CCCCO)C3=O` the same measures were 3% and 37%.
For `CC(=O)NCCc1nc2ccccc2n1Cc1ccc(C(C)C)cc1`, in that order: 6% and 26%.
With `COc1nc(Nc2ccc(C(C)C)cc2)nc(OC)n1`, the inhibition at 1.1 µM on hERG (Kv11.1, KCNH2) [1] was -2%. Also, the inhibition at 11.1 µM on hERG (Kv11.1, KCNH2) [2] is 17% (inactive).
With `Cc1ccccc1OCCSc1nc2ccc(NC(=O)c3cccs3)cc2s1`, the inhibition at 1.1 µM against hERG (Kv11.1, KCNH2) [1] stood at 12%. The inhibition at 11.1 µM on hERG (Kv11.1, KCNH2) [2] was 24% (inactive).
Consider `CC1CCN(Cc2c(O)ccc3cc(-c4nc5ccccc5s4)c(=O)oc23)CC1`, for which, at hERG (Kv11.1, KCNH2) [1], the inhibition at 1.1 µM is -3%. Further, the inhibition at 11.1 µM on hERG (Kv11.1, KCNH2) [2] was 10% (inactive).
For `COc1ccc(C(=O)C(CCC(CNC(C)(C)C)C(=O)c2ccc(OC)cc2)CNC(C)(C)C)cc1` (configuration not stated), in that order: 9% and 33%.
For the compound `Cc1c(C)n(Cc2ccc(F)cc2)c2ccc(C(=O)NCc3ccco3)cc12`, at hERG (Kv11.1, KCNH2) [1], the inhibition at 1.1 µM was -2%. In addition, the inhibition at 11.1 µM on hERG (Kv11.1, KCNH2) [2] is 5% (inactive).
Regarding `COc1ccc(C2C(C(=O)Nc3cccc(OC)c3)c3ccccc3C(=O)N2C2CCCCC2)cc1` (configuration not stated), the inhibition at 1.1 µM against hERG (Kv11.1, KCNH2) [1] came out at 4%. Moreover, on hERG (Kv11.1, KCNH2) [2], the inhibition at 11.1 µM was 70% (active).
`CCN(CC)c1ccc(NC(=O)c2cccs2)cc1`: the inhibition at 1.1 µM at hERG (Kv11.1, KCNH2) [1] is -1%. Further, the inhibition at 11.1 µM at hERG (Kv11.1, KCNH2) [2] was 1% (inactive).
For `CCOc1ccccc1NC(=O)CN1CCN(C(=O)c2ccco2)CC1`, in that order: 13% and 35%.
For `O=C(Nc1ccc(C23CC4CC(CC(c5ccccc5)(C4)C2)C3)cc1)c1cccs1` the same measures were 4% and 3% (inactive).
As to `CN1C=C(c2ccc3ccccc3n2)C(c2c[nH]c3ccccc23)c2ccccc21` (configuration not stated), the inhibition at 1.1 µM on hERG (Kv11.1, KCNH2) [1] came to 8%. Besides, at hERG (Kv11.1, KCNH2) [2], the inhibition at 11.1 µM is 89% (active).
For `Cc1ccccc1OCCSc1nc2ccc(NC(=O)c3ccccc3)cc2s1`, in that order: -9% and 2% (inactive).
As for `Cc1ccc(Nc2nc(N)c3ccccc3n2)cc1Cl`, the inhibition at 1.1 µM at hERG (Kv11.1, KCNH2) [1] is 5%. Besides, the inhibition at 11.1 µM at hERG (Kv11.1, KCNH2) [2] was 85% (active).
For `Cc1ccc(Cn2c(N3CCC(C(=O)NCc4cccs4)CC3)nc3ccccc32)cc1`, in that order: 105% and 103%.
For `O=c1nc(C=Cc2ccc(Cl)cc2)oc2ccccc12` the same measures were -5% and 10% (inactive).
For `O=C(NCc1ccco1)C1CCN(S(=O)(=O)c2ccc(Br)cc2)CC1`, in that order: 21% and 34%.
With `COc1ccc(-c2nc3cc(Cc4ccc5[nH]c(-c6ccc(OC)cc6)nc5c4)ccc3[nH]2)cc1`, the inhibition at 1.1 µM at hERG (Kv11.1, KCNH2) [1] was -7%. Further, at hERG (Kv11.1, KCNH2) [2], the inhibition at 11.1 µM is -1% (inactive).
For `CCOc1ccc(Nc2ccnc3cc(Cl)ccc23)cc1`, in that order: 5% and 26%.
For the compound `Cc1cc(Nc2ccc(Cl)cc2)n2nc(C(F)(F)F)nc2n1`, the inhibition at 1.1 µM against hERG (Kv11.1, KCNH2) [1] is 19%. For the same compound, the inhibition at 11.1 µM on hERG (Kv11.1, KCNH2) [2] was 59% (active).
Take `COc1ccc(OC)c(C2C3=C(CC(C)(C)CC3=O)N(c3ccc(Cl)c(Cl)c3)C3=C2C(=O)CC(C)(C)C3)c1`: the inhibition at 1.1 µM at hERG (Kv11.1, KCNH2) [1] came to 21%. At hERG (Kv11.1, KCNH2) [2], the inhibition at 11.1 µM is 27%.
For `Cc1cccc(N2C(=O)C3C(C2=O)C2(c4ccccc4)C(=O)C3(c3ccccc3)C(c3ccc4c(c3)OCO4)=C2c2ccc3c(c2)OCO3)c1` (configuration not stated) the same measures were -14% and 2% (inactive).
For `COc1ccc(C(C)=O)cc1N1C(=O)C2C(C1=O)C1(c3ccccc3)C(=O)C2(c2ccccc2)C(c2ccc(C)cc2)=C1c1ccc(C)cc1` (configuration not stated) the same measures were -5% and -1% (inactive).
Consider `COc1ccc(CCNC(=O)c2cc(S(=O)(=O)N3CC(C)CC(C)C3)ccc2Sc2ccc(F)cc2)cc1OC` (configuration not stated), for which the inhibition at 1.1 µM against hERG (Kv11.1, KCNH2) [1] stood at 10%. Also, on hERG (Kv11.1, KCNH2) [2], the inhibition at 11.1 µM is 5% (inactive).
For `Cc1ccc(F)cc1NC(=O)c1cc(Cl)ccc1Nc1ccccc1`, in that order: 5% and 12% (inactive).
For `Oc1c2c(nc3cc(-c4ccccc4)nn13)CCCC2` the same measures were 2% and -2% (inactive).
For `CCCCCCOC(=O)C1=C(C)NC(=O)NC1c1ccccc1F` (configuration not stated) the same measures were -2% and 1% (inactive).
With `OC1=C2C(=Nc3ccccc3SC2c2ccc(Br)cc2)c2ccccc21` (configuration not stated), the inhibition at 1.1 µM against hERG (Kv11.1, KCNH2) [1] turned out to be 3%. Moreover, the inhibition at 11.1 µM at hERG (Kv11.1, KCNH2) [2] was 10% (inactive).
`Clc1ccc2c(N3CCCC3)ccnc2c1`: the inhibition at 1.1 µM against hERG (Kv11.1, KCNH2) [1] is 38%. Also, the inhibition at 11.1 µM at hERG (Kv11.1, KCNH2) [2] is 83% (active).
For `COc1cc2c3cc1Oc1c(OC)c(OC)cc4c1C(Cc1ccc(O)c(c1)Oc1ccc(cc1)CC3N(C)CC2)N(C)CC4` (configuration not stated) the same measures were 14% and 69% (active).
For `Cc1ccc(N2C3c4ccccc4N(S(=O)(=O)c4ccc(C)cc4)C2c2ccccc2N3S(=O)(=O)c2ccc(C)cc2)cc1`, in that order: 18% and 18% (inactive).
With `Cc1ccc(C)c(-c2csc(Nc3ccc(C)c(C)c3)n2)c1`, on hERG (Kv11.1, KCNH2) [1], the inhibition at 1.1 µM turned out to be 57%. Further, at hERG (Kv11.1, KCNH2) [2], the inhibition at 11.1 µM is 100%.
For `COc1cc(OC)cc(N2C(=O)N(Cc3ccc(C(C)(C)C)cc3)c3ccccc3S2(=O)=O)c1` the same measures were 10% and 16% (inactive).
For `CCOc1ccc(CCNC(=O)c2cccs2)cc1OCC`, in that order: 9% and 13% (inactive).
Turning to `CCCc1c(CC)c(=N)c2ccccc2n1C`, the inhibition at 1.1 µM on hERG (Kv11.1, KCNH2) [1] came to 0%. The inhibition at 11.1 µM at hERG (Kv11.1, KCNH2) [2] was determined as 26%.
Consider `CCCCOc1ccc(C(=O)Nc2cc(C)on2)cc1`, for which the inhibition at 1.1 µM at hERG (Kv11.1, KCNH2) [1] was -2%. Besides, on hERG (Kv11.1, KCNH2) [2], the inhibition at 11.1 µM is 2% (inactive).
For `COc1ccccc1N1C(=N)SC(=Cc2ccc(OCc3ccccc3F)cc2)C1=O` the same measures were 18% and 24% (inactive).
Consider `CCc1ccc(Nc2cc(C)nc3nc(C)nn23)cc1`, for which the inhibition at 1.1 µM against hERG (Kv11.1, KCNH2) [1] is -2%. The inhibition at 11.1 µM on hERG (Kv11.1, KCNH2) [2] worked out at 42%.
For `CCOC(=O)c1cnc2c(C)cc(C)cc2c1Nc1ccc(OC)c(OC)c1` the same measures were 26% and 18% (inactive).
`CCN(CC)S(=O)(=O)c1ccc(-c2csc(Nc3ccc(C)c(C)c3)n2)cc1`: the inhibition at 1.1 µM against hERG (Kv11.1, KCNH2) [1] is -7%. On hERG (Kv11.1, KCNH2) [2], the inhibition at 11.1 µM is -3% (inactive).
For `CCCn1c(=N)c(C(=O)NC2CCCCC2)cc2c(=O)n3cccc(C)c3nc21` the same measures were 63% and 105%.
For `CCN1CCN(c2c(C(=O)c3ccccc3)cnc3cc(OC)c(OC)cc23)CC1`, in that order: 36% and 40%.
Regarding `CC(C)(C)c1ccc(C2CC3=Nc4ccccc4N(C(=O)c4ccccc4Cl)C(c4ccc(F)cc4)C3=C(O)C2)cc1` (configuration not stated), the inhibition at 1.1 µM at hERG (Kv11.1, KCNH2) [1] worked out at 30%. Besides, the inhibition at 11.1 µM at hERG (Kv11.1, KCNH2) [2] was 88% (active).
For `CCCCc1c(CCC)c(=N)c2ccccc2n1C` the same measures were 29% and 74% (active).
Consider `CCCCN(CCCC)S(=O)(=O)c1ccc(NC(=O)c2ccco2)cc1`, for which, on hERG (Kv11.1, KCNH2) [1], the inhibition at 1.1 µM turned out to be 13%. In addition, the inhibition at 11.1 µM against hERG (Kv11.1, KCNH2) [2] stood at 30%.
